Experiment in all cases: PubChem AID 493040
Experiment [1] concerns the target Mitogen-activated protein kinase 14 (Homo sapiens) (UniProt Q16539). As to conditions: kinase panel binding, pKi; MAPK14.
For experiment [2], the target named is Serine/threonine-protein kinase Sgk2 (Homo sapiens) (UniProt Q9HBY8). The note with it: kinase panel binding, pKi; SGK.
The target of experiment [3] is Cyclin-dependent kinase 2 (Homo sapiens) (UniProt P24941). The note with it: kinase panel binding, pKi; CDK2.
Experiment [4] addresses Rho-associated protein kinase 2 (Homo sapiens) (UniProt O75116). As to conditions: kinase panel binding, pKi; ROCK2.

SMILES strings stand for the structures. Activity calls are given as the source filed them. How the calls were made is not given here.

Mitogen-activated protein kinase 14 (Homo sapiens), sequence (Q16539 whole entry, looked up): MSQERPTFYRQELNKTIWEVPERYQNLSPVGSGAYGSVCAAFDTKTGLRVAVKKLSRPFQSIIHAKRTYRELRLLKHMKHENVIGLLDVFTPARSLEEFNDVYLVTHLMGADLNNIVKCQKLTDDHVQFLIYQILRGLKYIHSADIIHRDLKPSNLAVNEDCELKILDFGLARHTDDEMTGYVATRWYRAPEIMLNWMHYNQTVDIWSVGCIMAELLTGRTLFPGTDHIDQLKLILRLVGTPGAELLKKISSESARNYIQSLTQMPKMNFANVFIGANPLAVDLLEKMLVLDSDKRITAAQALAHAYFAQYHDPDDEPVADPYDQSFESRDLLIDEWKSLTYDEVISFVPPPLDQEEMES
Rho-associated protein kinase 2 (Homo sapiens), sequence (O75116 whole entry, looked up): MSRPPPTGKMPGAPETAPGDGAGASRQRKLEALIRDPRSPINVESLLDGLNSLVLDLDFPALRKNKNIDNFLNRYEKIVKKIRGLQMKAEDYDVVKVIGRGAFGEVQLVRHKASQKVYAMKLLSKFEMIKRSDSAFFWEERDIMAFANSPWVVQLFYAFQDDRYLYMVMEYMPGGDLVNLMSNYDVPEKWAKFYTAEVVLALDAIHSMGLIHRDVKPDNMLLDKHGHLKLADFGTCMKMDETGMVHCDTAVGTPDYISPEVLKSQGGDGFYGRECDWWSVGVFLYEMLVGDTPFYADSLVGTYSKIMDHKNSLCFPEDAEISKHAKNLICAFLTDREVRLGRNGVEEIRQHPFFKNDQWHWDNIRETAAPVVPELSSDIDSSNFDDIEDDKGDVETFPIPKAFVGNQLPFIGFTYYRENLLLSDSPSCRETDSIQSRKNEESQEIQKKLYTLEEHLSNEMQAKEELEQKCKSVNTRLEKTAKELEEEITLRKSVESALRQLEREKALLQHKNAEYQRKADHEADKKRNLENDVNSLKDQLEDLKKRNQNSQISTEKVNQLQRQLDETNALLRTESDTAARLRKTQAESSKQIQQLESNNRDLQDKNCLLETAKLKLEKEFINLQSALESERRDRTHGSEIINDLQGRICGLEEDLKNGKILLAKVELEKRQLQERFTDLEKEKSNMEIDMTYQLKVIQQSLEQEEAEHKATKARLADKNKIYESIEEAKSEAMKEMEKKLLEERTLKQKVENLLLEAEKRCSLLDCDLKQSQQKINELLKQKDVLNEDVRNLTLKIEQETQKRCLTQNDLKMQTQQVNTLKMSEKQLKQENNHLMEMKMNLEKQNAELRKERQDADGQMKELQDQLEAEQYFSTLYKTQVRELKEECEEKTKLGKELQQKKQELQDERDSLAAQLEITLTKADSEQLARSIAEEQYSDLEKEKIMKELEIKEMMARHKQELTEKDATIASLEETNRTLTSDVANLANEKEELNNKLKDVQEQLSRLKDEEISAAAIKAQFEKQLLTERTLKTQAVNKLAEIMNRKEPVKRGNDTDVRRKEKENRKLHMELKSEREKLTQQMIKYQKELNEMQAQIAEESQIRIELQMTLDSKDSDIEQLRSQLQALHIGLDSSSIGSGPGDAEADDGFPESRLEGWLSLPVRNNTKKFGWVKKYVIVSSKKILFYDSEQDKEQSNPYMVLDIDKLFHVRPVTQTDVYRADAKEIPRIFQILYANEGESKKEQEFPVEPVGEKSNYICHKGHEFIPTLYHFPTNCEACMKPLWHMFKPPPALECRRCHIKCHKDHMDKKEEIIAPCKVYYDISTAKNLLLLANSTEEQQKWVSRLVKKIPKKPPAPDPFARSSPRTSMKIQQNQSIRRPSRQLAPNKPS
Serine/threonine-protein kinase Sgk2 (Homo sapiens), sequence (Q9HBY8 whole entry, looked up): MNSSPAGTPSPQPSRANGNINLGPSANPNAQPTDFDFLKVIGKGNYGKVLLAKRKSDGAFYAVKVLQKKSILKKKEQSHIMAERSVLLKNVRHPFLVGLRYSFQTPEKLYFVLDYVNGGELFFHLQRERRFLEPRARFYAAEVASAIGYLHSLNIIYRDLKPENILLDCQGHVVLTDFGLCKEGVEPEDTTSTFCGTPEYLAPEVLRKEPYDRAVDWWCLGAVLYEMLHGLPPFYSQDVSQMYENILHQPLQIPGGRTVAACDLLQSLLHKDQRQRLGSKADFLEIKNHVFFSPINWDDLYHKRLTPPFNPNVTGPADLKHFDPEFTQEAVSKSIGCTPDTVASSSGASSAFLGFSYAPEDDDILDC

One may read the Ki as a dissociation constant, usually derived from enzyme kinetics or from competition with a known ligand. Consider `Nc1ccc2cc(NCCc3ccccc3)cc(Nc3ncccn3)c2n1`, for which the inhibition constant (Ki) in experiment [1] is 2510 nM.

Turning to `CC(C)(C)c1cc(NC(=O)Nc2cccc3ccccc23)n(-c2cccc(C(=O)N(CCN)CCO)c2)n1`, the inhibitory constant (Ki) in experiment [1] was 631 nM.

For the compound `CC(C)(C)c1cc(NC(=O)C(=O)c2cccc3ccccc23)n(-c2ccc(OCC(=O)NCCO)cc2)n1`, the Ki in experiment [1] was 631 nM.

As for `O=c1ncn2nc(Sc3ccc(F)cc3F)ccc2c1-c1c(Cl)cccc1Cl`, in experiment [2], the Ki is > 7940 nM (inactive).

For `O=C1N=c2ccc(Br)cc2=C1c1sc(=S)[nH]c1O`, the Ki in experiment [2] is 2000 nM.

Regarding `CN(Cc1ccccc1)c1cc(-c2c[nH]c3ncccc23)cc(Cl)n1`, the Ki in experiment [3] was 31.6 nM; in experiment [4], 20 nM.

Consider `CC(C)(O)CNc1cc(-c2c[nH]c3ncccc23)cc(Cl)n1`, for which the Ki was 251 nM in experiment [3] and 15.8 nM in experiment [4].

On to `O=C(Nc1ccc(CO)cc1)c1cnn2c(-c3ccccc3)ccnc12`, for which the Ki in experiment [2] is > 10000 nM (inactive).

As to `NC(=O)c1ccc(-c2nc(-c3ccc4c(c3)OCO4)c(-c3ccccn3)[nH]2)cc1`, in experiment [4], the Ki is > 3980 nM (inactive).

Consider `CC(C)(C)c1cc(NC(=O)c2cc3ccccc3s2)n(-c2cccc(OCC(=O)O)c2)n1`, for which the inhibitory constant (Ki) in experiment [1] was 794 nM.

Take `c1ccc(Cn2cc(-c3ccc4[nH]nc(-c5ccccc5)c4c3)nn2)cc1`: the Ki in experiment [3] was 100 nM; in experiment [4], 63.1 nM.

For `CCCCNc1cc(-c2ccncc2)cc2[nH]nc(N)c12`, the inhibitory constant (Ki) in experiment [3] was 200 nM; in experiment [4] it was 63.1 nM.

Turning to `NC1CCCCC1Nc1nccc(Nc2ccccc2C(=O)O)n1` (centres undefined), the Ki in experiment [4] was > 7940 nM (inactive).

For the compound `NC(=O)c1ccc(-c2ccncc2)cc1NCc1cccc(F)c1`, the inhibitory constant (Ki) was 3160 nM in experiment [3] and 5010 nM in experiment [4].

For the compound `CCCCNc1cc(-c2c[nH]c3ncccc23)ncn1`, the inhibition constant Ki is 200 nM in experiment [3] and 20 nM in experiment [4].

As for `Cc1ccc(Nc2nccc(Nc3ccccc3C(=O)O)n2)cc1F`, the Ki is 398 nM in experiment [3] and > 7940 nM (inactive) in experiment [4].

For the compound `CCCCOc1cc(-c2ccncc2)cc2[nH]nc(N)c12`, the Ki in experiment [3] is 1000 nM; in experiment [4], 126 nM.

Take `O=S(=O)(Nc1ccccn1)c1ccc(N=Cc2c(O)[nH]c3ccc4ncsc4c23)cc1`: in experiment [2], the Ki is 15.8 nM.

For the compound `Nc1n[nH]c2ccc(-c3nnn(Cc4ccccc4)c3C3CC3)cc12`, the Ki is 79.4 nM in experiment [3] and 20 nM in experiment [4].

Consider `Cc1c(C#N)c2nc3ccccc3n2c(=O)c1=CO`, for which the Ki in experiment [4] was > 7940 nM (inactive); in experiment [2], > 10000 nM (inactive).

Consider `COc1ccccc1C(=O)Nc1n[nH]c2ccc(-c3cn(Cc4ccccc4)nn3)cc12`, for which the inhibition constant Ki in experiment [3] is 251 nM; in experiment [4], > 7940 nM (inactive).

In the case of `Cc1[nH]nc2ccc(-c3cncc(OCCNS(C)(=O)=O)c3)cc12`, the inhibitory constant (Ki) was 316 nM in experiment [3] and 158 nM in experiment [4].

`O=C1Nc2ccccc2Nc2cc(-c3ccncc3F)ccc21`: the inhibitory constant (Ki) was 398 nM in experiment [3] and 126 nM in experiment [4].

Regarding `c1cnc2[nH]cc(-c3ccnc(NCC4CCCCC4)n3)c2c1`, the Ki in experiment [3] is 3.98 nM; in experiment [4] it was 6.31 nM.

As to `Cc1cccc(CNc2cc(-c3c[nH]c4ncccc34)ncn2)c1`, the Ki in experiment [3] is 39.8 nM; in experiment [4] it was 12.6 nM.

With `CCOC(=O)c1c(NC(=O)C2C(C)(C)C2(C)C)sc2cnccc12`, in experiment [3], the Ki was 1000 nM.

On to `Cc1cc(=O)n2[nH]cc(C(=O)NCc3ccccc3)c2n1`, for which the Ki in experiment [4] is 2510 nM.

In the case of `Cc1sc2[nH]c(=O)n3nc(-c4ccncc4)nc3c2c1C`, in experiment [4], the Ki was 3980 nM.

In the case of `Nc1n[nH]c2ccc(-c3cc(Cc4ccccc4)no3)cc12`, the Ki in experiment [3] was 200 nM; in experiment [4], 25.1 nM.

Consider `c1ccc(Cn2nnc(-c3ccc4[nH]ncc4c3)c2-c2ccccc2)cc1`, for which the inhibition constant Ki in experiment [3] is 63.1 nM.

As to `CCOC(=O)c1c[nH]n2c(=O)cc(-c3ccncc3)nc12`, the Ki in experiment [4] was 2000 nM.

For the compound `NC(=O)c1ccc(-c2ccnc(N)n2)cc1N1CCCCC1`, the Ki in experiment [3] is 1260 nM; in experiment [4] it was 1580 nM.

With `COc1cc2c(Oc3ccc4[nH]c(C)cc4c3F)ncnc2cc1OCCCN1CCCC1`, the Ki in experiment [2] is > 10000 nM (inactive).

For `O=c1cc(-c2ccc(F)cc2)nc2c(-c3ccc(F)cc3)c[nH]n12`, the Ki in experiment [4] was > 7940 nM (inactive).

In the case of `CN(C)CCCOc1cc(-c2ccncc2)cc2[nH]nc(N)c12`, the Ki in experiment [3] was 3160 nM; in experiment [4] it was 251 nM.

For the compound `NC(=O)c1ccc2c(ccn2-c2cccc(Cl)c2)c1`, the inhibition constant (Ki) in experiment [4] is 2510 nM.

For the compound `CN(C)c1cc(-c2ccncc2)cc2[nH]nc(N)c12`, the Ki is 631 nM in experiment [3] and 79.4 nM in experiment [4].

In the case of `O=C1Nc2ccccc2Nc2cc(-c3ccncc3Cl)ccc21`, the Ki in experiment [3] was 501 nM; in experiment [4] it was 631 nM.

`OCCCCNc1cc(-c2c[nH]c3ncccc23)cc(Cl)n1`: the inhibition constant (Ki) was 126 nM in experiment [3] and 15.8 nM in experiment [4].

As to `Cc1[nH]nc2ccc(-c3cncc(OCCN(C)S(C)(=O)=O)c3)cc12`, the Ki in experiment [3] is 501 nM; in experiment [4], 100 nM.

Take `c1ccc(Cn2cc(-c3ccc4[nH]nc(-c5cn(Cc6ccccc6)nn5)c4c3)nn2)cc1`: the inhibition constant (Ki) in experiment [3] is 5.01 nM; in experiment [4], 126 nM.

For `O=c1cc(-c2cccc(F)c2)nc2c(-c3ccc(F)cc3)c[nH]n12`, the Ki in experiment [4] is > 7940 nM (inactive).

Take `CCCCCCCCCCCCOc1ccc(N=C(N)N)cc1N=C(N)N`: the Ki in experiment [3] is 5010 nM; in experiment [4] it was 3160 nM; in experiment [2], > 10000 nM (inactive).

Take `O=c1cc(-c2ccncc2)nc(NCc2cc(F)cc(F)c2)[nH]1`: the Ki in experiment [3] and in experiment [4] was 794 nM each time.

Consider `NC(=O)c1ccc(Nc2ncnc3[nH]cc(-c4ccccc4)c23)cc1`, for which the inhibitory constant (Ki) in experiment [3] is 501 nM; in experiment [4], 251 nM.

`CC(C)(C)Oc1cc(-c2ccncc2)cc2[nH]nc(N)c12`: the Ki is 126 nM in experiment [3] and 50.1 nM in experiment [4].

Regarding `NC(=O)c1cccc2[nH]c(-c3cccc(NCCN4CCCC4)n3)nc12`, the Ki in experiment [2] was > 10000 nM (inactive).

On to `COc1ccc(C=C2SC(=Nc3ccccc3)NC2=O)cc1OC`, for which the Ki in experiment [2] is > 10000 nM (inactive).

Consider `O=C1CN=C(c2cccc(Cl)c2)c2c(sc3c2CCCC3)N1`, for which, in experiment [3], the Ki was 7940 nM.

Regarding `COCC(C)Nc1cc(-c2c[nH]c3ncccc23)cc(Cl)n1` (centres undefined), the Ki in experiment [3] is 158 nM; in experiment [4] it was 7.94 nM.

Regarding `CCOC(=O)c1cn(-c2ccc(O)cc2C)c2cc(-c3ccncc3)ccc2c1=O`, the inhibition constant Ki in experiment [3] is 3980 nM; in experiment [4], 31.6 nM; in experiment [2] it was > 10000 nM (inactive).

Take `CN(c1ccccc1-c1ccc2c(c1)Nc1ccccc1NC2=O)S(C)(=O)=O`: in experiment [3], the Ki was 2000 nM.

As to `O=C1Nc2ccccc2Nc2cc(-c3ccncc3)ccc21`, the values for the Ki in experiment [3] and in experiment [4] were 1000 nM and 316 nM, respectively.

In the case of `O=[N+]([O-])c1cccc(-c2nnc3ccc(N4CCCCC4)nn23)c1`, the inhibition constant (Ki) in experiment [3] is 631 nM; in experiment [4] it was > 7940 nM (inactive).

Regarding `CS(=O)(=O)Nc1ccccc1-c1ccc2c(c1)Nc1ccccc1NC2=O`, in experiment [3], the Ki was 6310 nM.

As to `COCCNc1cc(-c2c[nH]c3ncccc23)cc(Cl)n1`, the Ki in experiment [3] was 251 nM; in experiment [4], 5.01 nM.

Take `COCCN(CCOC)c1cc(-c2c[nH]c3ncccc23)cc(Cl)n1`: the figures for the inhibition constant Ki in experiment [3] and in experiment [4] were 2000 nM and 39.8 nM, respectively.

For the compound `Oc1cccc(-c2nc(N3CCOCC3)c3oc4ncccc4c3n2)c1`, the Ki in experiment [2] was > 7940 nM (inactive).

As for `Fc1ccc2c(c1)-c1[nH]ncc1CS2`, the inhibition constant Ki in experiment [3] is 20000 nM.

For `O=C(NCc1ccccc1)c1c[nH]n2c(=O)cc(-c3ccncc3)nc12`, the inhibitory constant (Ki) was 158 nM in experiment [3] and > 7940 nM (inactive) in experiment [4].

As for `Oc1ccc(-c2nc(-c3ccc(F)cc3)c(-c3ccncc3)[nH]2)cc1`, the Ki in experiment [4] is > 3980 nM (inactive); in experiment [2], > 6310 nM (inactive).

As for `O=C(Nc1ccccc1)Nc1nccs1`, in experiment [3], the inhibitory constant (Ki) was 20000 nM.

Consider `CCNC(=O)c1[nH]nc(-c2cc(Cl)c(O)cc2O)c1-c1ccc(OC)cc1`, for which the figures for the inhibition constant (Ki) in experiment [3] and in experiment [4] were 6310 nM and 2510 nM, respectively.

Regarding `Cn1cc(-c2ccccc2)c2nc(-c3ccncc3)cc(=O)n21`, the Ki in experiment [4] was 3160 nM.

For the compound `FC(F)(F)c1ccccc1CNc1nccc(-c2c[nH]c3ncccc23)n1`, the inhibition constant Ki in experiment [3] is 5.01 nM.

For the compound `CNCCOc1cncc(-c2ccc3n[nH]c(C)c3c2)c1`, the Ki in experiment [3] was 501 nM; in experiment [4], 20 nM.

For the compound `Cc1cccc(CNc2cc(-c3c[nH]c4ncccc34)cc(Cl)n2)c1C`, the values for the inhibitory constant (Ki) in experiment [3] and in experiment [4] were 200 nM and 31.6 nM, respectively.

Turning to `Cc1ccccc1-c1c(-c2ccc3n[nH]c(C)c3c2)nnn1Cc1ccccc1`, in experiment [3], the inhibitory constant (Ki) was 3.98 nM.

In the case of `C=CCNc1cc(-c2c[nH]c3ncccc23)cc(Cl)n1`, the Ki in experiment [3] is 100 nM; in experiment [4], 12.6 nM.

As for `CCn1c(-c2nonc2N)nc2cnc(Oc3cccc(NC(=O)c4ccc(OCCN5CCOCC5)cc4)c3)cc21`, the results for the Ki in experiment [3] and in experiment [2] were 794 nM and 200 nM, respectively.

With `OCCNc1cc(-c2c[nH]c3ncccc23)cc(Cl)n1`, the Ki in experiment [3] was 316 nM; in experiment [4] it was 20 nM.

Turning to `CCn1c(=C(C#N)C(=O)O)sc(=CNc2ccccc2)c1=O`, the Ki in experiment [2] was 3980 nM.

Turning to `Fc1cccc(-c2c[nH]c3ncccc23)c1`, the Ki was 1260 nM in experiment [3] and 316 nM in experiment [4].

`CC(C)(CO)CCCNc1cc(-c2c[nH]c3ncccc23)cc(Cl)n1`: the Ki in experiment [3] is 100 nM; in experiment [4] it was 10 nM.

Regarding `O=C(O)c1ccccc1Nc1ccnc(NCc2cccc(O)c2)n1`, the Ki in experiment [4] was > 7940 nM (inactive).

`CCCn1c(=O)c2[nH]c(-c3cnn(Cc4cccc(C(F)(F)F)c4)c3)nc2n(CC)c1=O`: the Ki in experiment [3] was 5010 nM.

In the case of `CCCCNc1c(-c2ccc3[nH]ncc3c2)nc2ncccn12`, the inhibitory constant (Ki) in experiment [3] is 398 nM; in experiment [4] it was 63.1 nM.

For the compound `NC(=O)c1ccccc1Nc1nc(Nc2ccccc2)ncc1C(F)(F)F`, the Ki in experiment [4] was 501 nM.

The values above are taken from PubChem BioAssay AID493040 (Abbott Labs, 2011).
